Measurements as given in paper PMC7269032, “Chiral 4-O-acylterpineol as transdermal permeation enhancers: insights of the enhancement mechanisms of a transdermal enantioselective delivery system for flurbiprofen” (Drug Delivery, 2020).
Converted amounts (≈) assume the structure as drawn. Read-outs that look alike come from different tables or passages of the source.

How the values were obtained:
[1] = In vitro permeation experiment of FP drug-in-adhesive patches in two-chamber diffusion cells; format: in vitro ADME, rabbit
Source text: Male, Japanese big-eared rabbits weighting 2.5–3.0 kg were purchased from the animal experimental center of North China University of Science and Technology. The experimental process was in accordance with the ‘Ethical Guide for Laboratory Animal Investigation’ and was approved by the Animal Experimental Center Committee of North China University of Science and Technology. All efforts were made to minimize animal suffering and to limit the number of animals used.
The hair of back skin was removed by clipper and electrical shaver carefully when the rabbits were anesthetized with ether. Full thickness of back skin was excised after the rabbit was sacrificed by injecting air into the ear veins, and the subcutaneous fat tissue was carefully removed using the surgical scissor and scalpel. The integrity of the skin was confirmed by microscopic observation method. The treated rabbit skin was cut into a size of 1.5 cm × 1.5 cm and stored at –80 °C until use. Before use, it needed to be immersed in physiological saline for 20 min to thaw.
Drug-in-adhesive patch (drug loading of 5% by adhesive) was prepared by using solvent evaporation method. An appropriate amount of FP was dissolved in a suitable amount of ethyl acetate, which was later added to the adhesive and mixed thoroughly with a mechanical stirrer. The resulting solution was coated onto release liner (Scotch Pak® 9744, 3M, USA) by using lab coating unit (6025, BLD Instruments Co. Ltd., Guangdong, China). The coated laminate was dried at 50 °C for 15 min. After the solvent had been removed, it was covered with backing laminate (Scotch Pak® 9732, 3M).
Modified two-chamber diffusion cells with an effective diffusion area of 0.95 cm^2 were employed in the in vitro permeation experiment. The cells were kept at 32 °C by the circulated water bath and stirred with magnetic bars at 400 rpm. The dermis side of the skin was attached to one-half of the side-by-side diffusion cells, the FP patch was pressed on the skin with the adhesive side facing the SC, and pH 7.4 PBS was used as the receptor medium. At predetermined time points (2, 4, 6, 8, 10, 12 and 24 h), the receptor solution of 2.0 mL was withdrawn and equal volume PBS was added to maintain a constant volume of receptor solution.
The cumulative amount of each drug permeating per unit area (Q) versus time was plotted. Q24h=(3.5Ci+2.0∑i=1n−1Ci−1)/A
Q was the cumulative skin permeation amount. Ci was the concentration in the receiver compartment at time i, A was the effective diffusion area of diffusion.
The steady-state flux (Js, µg/cm^2/h) was calculated from the slope of linear region of the plot. The lag-time was determined by extrapolating the linear portion of the curve to the abscissa. Js=dQr/Adt
Enhancement ratio (ER) was used to evaluate the activity of the enhancers, which is the ratio of Q24h with enhancer to Q24h without enhancer. ER=Q24h(with enhancer)/Q24h(without enhancer)

[2] = Determination of drug solubility; format: physicochemical; details: pure water, 25 °C; for solubility: 48 h
Experimental: The excess SR-FP or its single enantiomer (0.01 g) were sealed to 10 mL of pure water at 25 °C in glass vials and waved for 48 h in constant temperature air bath oscillator […]. Finally, the contents were passed through the 0.45 μm microporous membrane and centrifuged at 10,000 rpm for 5 min, then aliquots for the supernatant saturated solution were diluted and analyzed by HPLC. The experiments were performed in triplicate.

[3] = Determination of drug oil-water partition coefficient (log P); format: physicochemical; details: n-octanol/water, 25 °C
Experimental: The same volume of water and n-octanol were mixed and shaken for 24 h at 25 °C, then the equal of water saturated n-octanol solution and n-octanol saturated aqueous solution through liquid-separation were obtained. The SR-FP or its single enantiomer (0.001 g) were added in the saturated solution, which were mixed to the ratio of 1:4, then shook for 24–48 h followed by stand for 24 h. (The shakings were in constant temperature air bath oscillator at 25 °C). Afterwards, the HPLC method was utilized to detect the concentration of the substance in the oil phase and the water phase.

[4] = In vivo pharmacokinetic study, intravenous administration; set-up: species or system rabbit; details: rabbits, IV of 4.8 mg/kg SR-FP, enantiomer measured in plasma
Experimental: A certain amount of FP was dissolved in a mixed solution of sterile water and Tween-80 at 2.0 mg/mL. The fresh intravenous solution was prepared just before intravenous administration.
Six male rabbits weighing 2.5 kg were selected for IV. A capacity of 4.8 mg/kg FP (0.2 g FP was dissolved in a mixed solution of pure water and Tween80) was administered to the one ear vein of rabbit, the other ear vein of rabbit was phlebotomized about 0.5 mL at 5, 10, 15, 30 min and 1, 2, 3, 4, 6, 8, 10, 12 h. The blood samples were centrifuged at 4000 rpm for 10 min and kept at –80 °C.
(§1) After being thawed and equilibrated to room temperature, an aliquot (100 μL) of plasma sample was spiked with […] (10 μL) of 40.0 μg/mL and 400 μL methanol. The samples were vortexed for 5 min and followed by centrifugation at 16,000 rpm for 10 min at 25 °C. After centrifugation, the supernatant was transferred to a clean tube and evaporated to dryness at 40 °C under a gentle stream of nitrogen. The dried samples were reconstituted with 100 μL mobile phase, vortexed and centrifuged before analysis.
(§2) Pharmacokinetic parameters were calculated using WinNonlin® software (Pharsight Corporation, San Diego, CA, USA) based on noncompartmental model, including the maximal plasma drug concentration (Cmax), the time to reach Cmax (Tmax) which were obtained from the observed data, the area under the time–concentration curve from time 0 to time t (AUC0–t) of distribution which was calculated using the linear trapezoidal rule, the mean residence time (MRT), the plasma clearance (Cl) and the apparent volume(V). Enhancement factor (Ef) was calculated from the following equation: Ef=AUC0−t(with enhancer)/AUC0−t(without enhancer)
The concentrations of drugs in the receptor medium or rabbit plasma were determined using a validated HPLC method. The HPLC system was equipped with a Shimadzu HPLC apparatus, including an LC-20AT pump, a SIL20A syringe, an SPD-20A detector, and a CTO-20A column oven. The propylparaben was used as an internal standard, and the flow rate of chromatographic analysis was set 1.0 mL/min. For in vitro analysis of SR-FP, thermo (USA) C18 column (150 mm × 4.6 mm, 5 μm particle) maintained at 40 °C was used to elute SR-FP, the mobile phase was used methanol and 1% aqueous glacial acetic acid (60:40, v/v) and the wavelength was set at 247 nm. The HPLC conditions of S-FP and R-FP were as follows: The column was CHIRALPAK®IA (4.6 mm × 250 mml, 5 μm particle diameter) of DAOCEL (Shanghai, China). The mobile phase consisted of acetonitrile and trifluoroacetic acid (0.05%, 50:50, v/v), the wavelength was set at 254 nm. […]

[5] = In vivo pharmacokinetic study, transdermal patch administration; set-up: species or system rabbit; details: rabbits, patch loaded with individual enantiomer, plasma (Figure 2(F))
Experimental: Thirty-six male rabbits weighing 2.5 kg were divided into six groups, and the back skin was intact without erythema. For patch administration studies, patches without or with enhancers (120 mg/kg) were stuck to the shaved area of the rabbits. They were administered as follows: (1) control group: only the SR-FP; (2) enhancer group A: prepared SR-FP patch with 5% d-4-TER; (3) enhancer group B: prepared SR-FP patch with 5% d-4-T-dC18; (4) enhancer group C: prepared SR-FP patch with 5% l-4-T-dC18; (5) enhancer group D: prepared S-FP patch with 5% d-4-T-dC18; (6) enhancer group E: prepared R-FP patch with 5% d-4-T-dC18. In order to prevent the patches fallen off, gauze and medical tape were used to fix the patches. The blood from ear vein of rabbit was collected 0.5 mL at 0.5, 1, 2, 4, 6, 8, 12, 16, 20, 24, 26, 28, 30, 32, 36 and 48 h, and the patch was removed after 24 h, then the residual drug was wiped with physiological saline. The sample was processed by the same method as IV. All animal studies were carried out in accordance with the NIH Guidelines for the Care and Use of Laboratory Animals and were also approved by the Life Science Research Center of North China University of Science and Technology.
as §1, §2
The concentrations of drugs in the receptor medium or rabbit plasma were determined using a validated HPLC method. The HPLC system was equipped with a Shimadzu HPLC apparatus, including an LC-20AT pump, a SIL20A syringe, an SPD-20A detector, and a CTO-20A column oven. The propylparaben was used as an internal standard, and the flow rate of chromatographic analysis was set 1.0 mL/min. For in vitro analysis of SR-FP, thermo (USA) C18 column (150 mm × 4.6 mm, 5 μm particle) maintained at 40 °C was used to elute SR-FP, the mobile phase was used methanol and 1% aqueous glacial acetic acid (60:40, v/v) and the wavelength was set at 247 nm. The HPLC conditions of S-FP and R-FP were as follows: The column was CHIRALPAK®IA (4.6 mm × 250 mml, 5 μm particle diameter) of DAOCEL (Shanghai, China). The mobile phase consisted of acetonitrile and trifluoroacetic acid (0.05%, 50:50, v/v), the wavelength was set at 254 nm. For in vivo analysis of S-FP and R-FP, the mobile phase consisted of acetonitrile and trifluoroacetic acid (0.05%, 35:65, v/v), and other conditions were the same to in vitro analysis.
Absolute bioavailability (F) was calculated by the following equation: F=AUCpatch·Dosei.v./AUCi.v.·Dosepatch

Tlag of R-FP ([1]; permeant R-FP, patch 5% drug (w/w), enhancer equimolar to 5% 4-TER (control: no enhancer)) [h] | Js of R-FP ([1]; permeant R-FP, patch 5% drug (w/w), enhancer equimolar to 5% 4-TER (control: no enhancer), mean ± SD, n = 4) [μg/cm^2/h] | solubility [2] [µg/mL] | logP [3] | Cl [4] [L/h] | MRT [4] [h] | chiral inversion to the other enantiomer in vivo [5] | Tlag of S-FP ([1]; permeant S-FP, patch 5% drug (w/w), enhancer equimolar to 5% 4-TER (control: no enhancer)) [h] | Js of S-FP ([1]; permeant S-FP, patch 5% drug (w/w), enhancer equimolar to 5% 4-TER (control: no enhancer), mean ± SD, n = 4) [μg/cm^2/h] | cumulative transport of SR-FP at 24 h ([1]; 0% enhancer level (w/w)) [μg/cm^2] | Tlag of SR-FP ([1]; permeant SR-FP, patch 5% drug (w/w), enhancer equimolar to 5% 4-TER (control: no enhancer)) [h] | Js of SR-FP ([1]; permeant SR-FP, patch 5% drug (w/w), enhancer equimolar to 5% 4-TER (control: no enhancer), mean ± SD, n = 4) [μg/cm^2/h] | solubility at 48 h [2] [µg/mL] | logP ([3]; read-out: logP) | SMILES
2.43 | 2.43 ± 0.18 | 49.82 ± 1.31 (≈ 204 µM) | 1.83 ± 0.09 | 0.52 ± 0.03 | 1.84 ± 0.15 | S-FP could be detected | – | – | – | – | – | – | – | C[C@@H](C(=O)O)c1ccc(-c2ccccc2)c(F)c1 [R-FP]
– | – | 46.39 ± 4.30 (≈ 190 µM) | 1.86 ± 0.05 | 0.30 ± 0.02 | 2.04 ± 0.23 | had not been observed | 3.82 | 2.65 ± 0.29 | – | – | – | – | – | C[C@H](C(=O)O)c1ccc(-c2ccccc2)c(F)c1 [S-FP]
– | – | – | – | – | – | – | – | – | 122.93 ± 8.02 | 3.31 | 5.54 ± 0.37 | 89.1 ± 5.48 (≈ 365 µM) | 2.28 ± 0.04 | CC(C(=O)O)c1ccc(-c2ccccc2)c(F)c1 (stereo not shown) [SR-FP, Flurbiprofen]
